Activity calls are given as the source filed them. The calls are words filed in the database; no cut-off is given here.
Legend:
[1] = species: Rattus norvegicus; assay: (§1) Potency in adjuvant-induced arthritis assay/ potency in intestinal toxicity assay.; format: functional
[2] = species: Rattus norvegicus; assay: Pharmacological potency relative to indomethacin for prodrug candidate by adjuvant-induced arthritis assay; format: functional
[3] = biological target: T1, Cyclooxygenase (Rattus norvegicus, UniProt P35355+Q63921)
T1 sequence (P35355 whole entry): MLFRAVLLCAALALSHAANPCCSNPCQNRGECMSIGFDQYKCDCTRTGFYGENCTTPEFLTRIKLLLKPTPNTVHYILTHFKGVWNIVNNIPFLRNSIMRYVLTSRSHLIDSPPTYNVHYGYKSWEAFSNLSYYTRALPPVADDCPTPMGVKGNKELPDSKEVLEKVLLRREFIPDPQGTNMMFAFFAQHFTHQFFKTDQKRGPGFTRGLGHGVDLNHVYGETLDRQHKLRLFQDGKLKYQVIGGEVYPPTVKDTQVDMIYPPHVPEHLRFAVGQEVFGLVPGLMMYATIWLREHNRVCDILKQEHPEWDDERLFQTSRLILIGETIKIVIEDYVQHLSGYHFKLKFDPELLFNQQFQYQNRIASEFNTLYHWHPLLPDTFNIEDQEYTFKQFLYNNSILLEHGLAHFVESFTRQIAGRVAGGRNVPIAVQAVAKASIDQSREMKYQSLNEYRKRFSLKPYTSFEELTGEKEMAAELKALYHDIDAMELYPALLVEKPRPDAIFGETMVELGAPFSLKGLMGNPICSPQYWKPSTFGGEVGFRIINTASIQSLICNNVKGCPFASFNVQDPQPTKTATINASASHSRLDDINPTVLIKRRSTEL
T1 sequence (Q63921 whole entry): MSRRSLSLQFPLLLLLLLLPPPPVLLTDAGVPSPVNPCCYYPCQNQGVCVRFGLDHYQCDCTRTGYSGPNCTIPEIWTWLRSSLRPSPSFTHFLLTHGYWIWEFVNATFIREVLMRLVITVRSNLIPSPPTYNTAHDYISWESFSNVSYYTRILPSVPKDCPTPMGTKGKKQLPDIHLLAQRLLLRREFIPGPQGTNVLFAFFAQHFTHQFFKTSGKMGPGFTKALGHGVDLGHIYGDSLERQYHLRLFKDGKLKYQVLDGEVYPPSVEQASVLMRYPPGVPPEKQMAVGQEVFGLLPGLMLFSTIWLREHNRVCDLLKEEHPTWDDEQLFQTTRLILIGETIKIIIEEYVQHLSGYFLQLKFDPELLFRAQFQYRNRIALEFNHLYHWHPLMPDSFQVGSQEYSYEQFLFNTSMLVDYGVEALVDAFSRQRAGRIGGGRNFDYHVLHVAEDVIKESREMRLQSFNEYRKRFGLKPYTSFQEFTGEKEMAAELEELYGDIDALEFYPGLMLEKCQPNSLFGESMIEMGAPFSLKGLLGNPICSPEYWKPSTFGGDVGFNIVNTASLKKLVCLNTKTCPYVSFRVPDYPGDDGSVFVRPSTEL

[4] = Antiinflammatory activity was tested in Pleural effusion rate assay and the percent change in average volume of pleural fluid at the dose of 316 mg/kg; Inactive
[5] = species: Rattus norvegicus; assay: potency in adjuvant-induced arthritis assay/ potency in intestinal toxicity assay.; format: functional
[6] = tested on: Rattus norvegicus; assay: Antiinflammatory activity was tested in Pleural effusion rate assay for and the percent change in average volume of pleural fluid at the dose of 4.0 mg/kg; format: functional
[7] = biological target: Prostaglandin G/H synthase 1 (Ovis aries) (UniProt P05979); assay: Inhibitory activity against Prostaglandin G/H synthase
[8] = as §1; conditions: read-out: Therapeutic index

SMILES | IC50 [3] | Therapeutic index [1] | Potency [2] | also measured
Nc1c(CC(=O)[O-])cccc1C(=O)c1ccc(Cl)cc1.[Na+] | 0.1 µM | 1.6 | 2.2 | 
CC(=O)Nc1c(CC(=O)O)cccc1C(=O)c1ccccc1 |  |  |  | Change [4]: inactive
Nc1c(C(=O)CCC(=O)O)cccc1C(=O)c1ccc(Cl)cc1 | > 1000 µM | 3 | 0.9 | 
Nc1c(CC(=O)[O-])cccc1C(O)c1ccc(Cl)cc1.[Na+] (stereo unspecified) | > 1000 µM |  | 0.002 | 
CCOC(=O)Cc1cccc(C(=O)c2ccc(Cl)cc2)c1NC(=O)C(F)(F)F | > 1000 µM | 3.3 | 1 | 
Nc1c(CC(=O)[O-])cccc1C(O)c1ccccc1.[Na+] (stereo unspecified) | > 1000 µM |  | 0.001 | 
N#CCc1cccc(C(=O)c2ccc(Cl)cc2)c1N |  |  |  | Change [4]: inactive
CN(C)c1c(CC(=O)O)cccc1C(=O)c1ccccc1 | > 1000 µM |  | 0.009 | 
O=C(O)Cc1cccc2c(-c3ccc(Cl)cc3)onc12 | > 500 µM |  | 1 | Therapeutic index [5]: 1
Nc1c(CCO)cccc1C(=O)c1ccc(Cl)cc1 | > 1000 µM | 3.3 | 0.8 | 
COc1ccc2c(c1)c(CC(=O)O)c(C)n2C(=O)c1ccc(Cl)cc1 [INDOMETHACIN] |  |  | 1 | 
O=C1Cc2cccc(C(=O)c3ccccc3)c2N1 |  |  |  | Change [4]: inactive
Nc1c(CCO)cccc1C(=O)c1ccccc1 | > 100 µM |  | 0.05 | 
CC(=O)c1cccc(C(=O)c2ccccc2)c1N |  |  |  | Change [4]: inactive
Nc1c(CC(=O)[O-])cccc1C(=O)C1CCCCC1.[Na+] |  |  | 0.004 | 
O=C(O)Cc1cccc(C(=O)c2ccccc2)c1[N+](=O)[O-] | > 1000 µM | 5 | 0.5 | 
O=C(O)Cc1cccc(C(=O)c2ccc(Cl)cc2)c1[N+](=O)[O-] |  |  | 1.7 | Change [6]: -21%; IC50 [7]: > 1 mM; selectivity ratio [8]: 3.4
O=C1Cc2cccc(C(=O)c3ccc(Cl)cc3)c2N1 |  |  |  | Change [4]: inactive
O=C(O)Cc1cccc2c(-c3ccccc3)onc12 | > 1000 µM | 2.5 | 0.6 | 

Further lines, with some results ahead:

IC50 [3] | SMILES | Therapeutic index [1] | Potency [2] | also measured
> 1000 µM | NC(=O)Cc1cccc(C(=O)c2ccc(Cl)cc2)c1N | 10 | 0.8 | 
> 500 µM | Nc1c(CCO)cccc1C(O)c1ccccc1 (stereo unspecified) |  | 0.005 | 
73 µM | CCOC(=O)Cc1cccc(C(=O)c2ccc(Cl)cc2)c1N | 1.7 | 1 | 
50 µM | CCOC(=O)Cc1cccc(C(=O)c2ccccc2)c1N | 0.4 | 0.3 | 
0.1 µM | Nc1c(CC(=O)[O-])cccc1C(=O)c1ccccc1.[Na+] [AMFENAC SODIUM] | 2.8 | 1.1 | 
> 1000 µM | Nc1c(CCO)cccc1C(O)c1ccc(Cl)cc1 (stereo unspecified) |  | 0.05 | 
> 100 µM | NC(=O)Cc1cccc(C(=O)c2ccccc2)c1N |  | 0.09 | 
> 1000 µM | Nc1c(C(=O)CCC(=O)O)cccc1C(=O)c1ccccc1 | 2.5 | 0.4 | 

Source: ChEMBL document CHEMBL1124887, “Antiinflammatory agents. 4. Syntheses and biological evaluation of potential prodrugs of 2-amino-3-benzoylbenzeneacetic acid and 2-amino-3-(4-chlorobenzoyl)benzeneacetic acid” (J Med Chem, 1990)
